# Tested on: whitefly Bemisia tabaci
# Assay: Bemisia test (cotton plants infested with whitefly, immersed in active compound preparation)
# Assay type: in vivo
# Details: single active compound, 4 ppm; eggs, larvae and pupae on cotton plants (Gossypium hirsutum), immersion
# From the text: The expected action for a given combination of two active compounds can be calculated as follows, using the formula of S. R. Colby, Weeds 15 (1967), 20–22:
# • X is the efficacy, expressed as % of the untreated control, when employing active compound A at an application rate of m g/ha or in a concentration of m ppm, • Y is the efficacy, expressed as % of the untreated control, when employing active compound B at an application rate of n g/ha or in a concentration of n ppm and • E is the efficacy, expressed as % of the untreated control, when employing active compounds A and B at application rates of m and n g/ha or in a concentration of m and n ppm, then
# [formula] If the actual insecticidal kill rate exceeds the calculated value, the action of the combination is superadditive, i.e. a synergistic effect is present. In this case, the actually observed insecticidal kill rate must exceed the value calculated using the above formula for the expected insecticidal kill rate (E).
# • Solvent: 7.5 parts by weight of dimethylformamide • Emulsifier: 2.5 parts by weight of alkylaryl polyglycol ether
# To produce a suitable preparation of active compound, 1 part by weight of active compound is mixed with the stated amounts of solvent and emulsifier, and the concentrate is diluted with water to the desired concentration.
# Cotton plants (Gossypium hirsutum) which are infested with eggs, larvae and pupae of the whitefly Bemisia tabaci are immersed in a preparation of active compound of the desired concentration.
# After the desired period of time, the kill in % is determined. 100% means that all animals have been killed; 0% means that none of the animals have been killed.
row,SMILES,Kill rate in % after 10^d
1,"Cc1c(COC(=O)C2C(/C=C(\Cl)C(F)(F)F)C2(C)C)cccc1-c1ccccc1 (stereo not drawn) [Bifenthrin, bifenthrin]",0%
2,"CC1(C)C(C=C(Cl)Cl)C1C(=O)OC(C#N)c1ccc(F)c(Oc2ccccc2)c1 (stereo not drawn) [Cyfluthrin, cyfluthrin]",0%
3,Cc1cc(C)c(C2=C(OC(=O)CC(C)(C)C)C3(CCCC3)OC2=O)c(C)c1 [Ex. (I-b-1)],0%

# — patent US7232845B2, “Active substance combinations comprising insecticidal and acaricidal properties” (Bayer CropScience AG, priority 2000, dated 2007)
